Data published in patent publication US20150071989A1, “LIPOSOMES FOR HEMATOLOGICAL TUMORS” (University of Tennessee Research Foundation, priority 2013, published 2015).

Tests used:
Daudi cells = assay: MTT cell viability assay, in vitro cytotoxicity in CD22+ Daudi cells; format: cell-based; conditions: Homo sapiens
Description: FIG. 14B is a graph showing the in vitro cytotoxicity of targeted, drug-loaded liposomes (solid line, “CD22 Targeted NP”) and untargeted, drug-loaded liposomes (dotted line, “Untargeted NP”) in Daudi cells after 24 hours. The Daudi cells have the cell surface antigen (CD22) to which the antibody of the targeted liposomes binds. For comparison, the in vitro cytotoxic effects of free (solution) drug (N-benzyladriamycin-14-valerate (AD198)) are also shown (dashed line, “Solution Drug”). Cytotoxicity is expressed as percentage (%) cell kill as measured via (3-(4,5-dimethylthiazol-2-yl)-2,5-diphenyltetrazolium bromide (MIT) cell viability assay. The data represents the average of three measurements; the error bars represent±standard deviation.
FIG. 15B is a graph showing the in vitro cytotoxicity of targeted, drug-loaded liposomes (solid line, “CD22 Targeted NP”) and untargeted, drug-loaded liposomes (dotted line, “Untargeted NP”) in Daudi cells after 48 hours. The Daudi cells have the cell surface antigen (CD22) to which the antibody of the targeted liposomes binds. […] Cytotoxicity is expressed as percentage (%) cell kill as measured via (3-(4,5-dimethylthiazol-2-yl)-2,5-diphenyltetrazolium bromide (MTT) cell viability assay. The data represents the average of three measurements; the error bars represent±standard deviation. […]

Jurkat cells = assay: MTT cell viability assay, in vitro cytotoxicity in CD22- Jurkat cells; format: cell-based; conditions: Homo sapiens
Description: FIG. 14A is a graph showing the in vitro cytotoxicity of targeted, drug-loaded liposomes (solid line, “CD22 Targeted NP”) and untargeted, drug-loaded liposomes (dotted line, “Untargeted NP”) in Jurkat cells after 24 hours. The Jurkat cells lack the cell surface antigen (CD22) to which the antibody of the targeted liposomes binds. For comparison, the in vitro cytotoxic effects of free (solution) drug (N-benzyladriamycin-14-valerate (AD198)) are also shown (dashed line, “Solution Drug”). Cytotoxicity is expressed as percentage (%) cell kill as measured via (3-(4,5-dimethylthiazol-2-yl)-2,5-diphenyltetrazolium bromide (MTT) cell viability assay. The data represents the average of three measurements; the error bars represent±standard deviation.
FIG. 15A is a graph showing the in vitro cytotoxicity of targeted, drug-loaded liposomes (solid line, “CD22 Targeted NP”) and untargeted, drug-loaded liposomes (dotted line, “Untargeted NP”) in Jurkat cells after 48 hours. […] Cytotoxicity is expressed as percentage (%) cell kill as measured via (3-(4,5-dimethylthiazol-2-yl)-2,5-diphenyltetrazolium bromide (MTT) assay. The data represents the average of three measurements; the error bars represent±standard deviation.
In vitro efficacy of the liposomes was also studied using the MTT assay to assess cell viability. […] IC50 concentrations were also calculated for the solution drug and the targeted liposome. […]

`CCCCC(=O)OCC(=O)[C@]1(O)Cc2c(O)c3c(c(O)c2[C@@H](O[C@H]2C[C@H](NCc4ccccc4)[C@H](O)[C@H](C)O2)C1)C(=O)c1c(OC)cccc1C3=O` [AD198, N-benzyladriamycin-14-valerate] showed an IC50 (Daudi cells; Daudi cells (CD22+), 24 hours) of 250 nM, an IC50 (Daudi cells; Daudi cells, 48 hours) of 100 nM and an IC50 (Jurkat cells; Jurkat cells (CD22-), 24 hours) of 1050 nM. For the same compound, the IC50 (Jurkat cells; Jurkat cells, 48 hours) was 100 nM.
